Experimental data published in patent US20250057805A1, “METHODS FOR ADDRESSING INJECTION SITE REACTIONS ASSOCIATED WITH THE ADMINISTRATION OF BEVEMIPRETIDE” (Stealth BioTherapeutics Inc., priority 2023, published 2025).

Legend:
[1] = biological target: T1, human MRGPRX2 (Homo sapiens, UniProt Q96LB1); assay: Calcium mobilization (Fluo-4 AM) in MRGPRX2 expressing Chem-1 cells; format: cell-based; design: host or cells: Chem-1 cells (G418-selected); conditions: for inhibition of the activation of the MRGPRX2 receptor caused by bevemipretide: MRGPRX2 expressing cells with 100 μM of bevemipretide, FIGS. 7A and 7B; for activation of the MRGPRX2 expressing cells (calcium response): MRGPRX2 expressing Chem-1 cells, FIG. 5A, FIG. 6
T1 sequence (Q96LB1 1-330): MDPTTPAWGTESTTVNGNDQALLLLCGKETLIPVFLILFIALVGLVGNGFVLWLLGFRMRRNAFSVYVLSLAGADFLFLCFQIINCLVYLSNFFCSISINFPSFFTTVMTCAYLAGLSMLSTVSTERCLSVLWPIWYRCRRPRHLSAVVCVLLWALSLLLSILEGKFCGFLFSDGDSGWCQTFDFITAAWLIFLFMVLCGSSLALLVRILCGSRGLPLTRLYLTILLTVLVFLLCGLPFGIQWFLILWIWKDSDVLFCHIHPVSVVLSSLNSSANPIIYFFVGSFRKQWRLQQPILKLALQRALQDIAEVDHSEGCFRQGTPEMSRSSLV
Experimental: (§1) MRGPRX2 expressing and control (non-MRGPRX2 expressing) Chem-1 cells lines were obtained from Discovery Services, EuroFins. Cells were cultured in Dulbecco's Modified Eagle Medium (DMEM) high glucose medium (4.5 g/L) with 10% fetal bovine serum (FBS), non-essential amino acids, and N-2-hydroxyethylpiperazine-N′-2-ethanesulfonic acid (HEPES) buffer (pH 7.0-7.6). Geneticin (G418) was used for selection of MRGPRX2-expressing Chem-1 cells. Cells were maintained at 37° C. at 5% CO2. Cells were seeded to a glass bottom 96-well plates at a density of 50,000 per well (Cellvis). Cells were loaded with Fluo-4 AM for 30 minutes at 37° C. at a concentration of 2.5 μM. Cells were washed once with Dulbecco's phosphate buffered saline (DPBS). Cells were rested at room temperature for 30 minutes before use and washed with DPBS. Cells were resuspended in 50 μL phosphate buffered saline (PBS) with calcium and magnesium. To stimulate cells, 50 μL of 2× drug (bevemipretide or leuprolide) or DPBS as a control. Plates were read immediately with a Biotek plate reader. Readings were taken every 6 seconds for 2 minutes.
(§2) This assay was designed as a calcium-based readout of receptor activity.

[2] = test system: control (non-MRGPRX2 expressing) Chem-1 cells; assay: Calcium mobilization (Fluo-4 AM) in control Chem-1 cells lacking the MRGPRX2 receptor; format: cell-based, human; conditions: parent Chem-1 cells lacking MRGPRX2; FIG. 5B
Experimental: as §1, §2

[3] = Phase 1 human clinical trial, subcutaneous administration; format: in vivo; conditions: phase 1, subcutaneous administration
[4] = biological target: T1, human MRGPRX2; assay: Fluo-4 calcium assay in HEK293 cells stably expressing human MRGPRX2 and Galpha15 (fluorescent plate reader); format: cell-based; design: expressed in transfected cells; host or cells: clonal HEK293 cell line; conditions: calcium response, multiple runs, FIG. 4
Experimental: A clonal HEK293 cell line stably expressing human MRGPRX2 and Galpha15 was used for the assay, which was performed using a fluorescent plate reader. Cells were plated at 40,000 cells per well in a glass-bottom 96 well plate 20 hours before the assay. Cells were loaded with N-[4-[6-[(Acetyloxy)methoxy]-2,7-difluoro-3-oxo-3H-xanthen-9-yl]-2-[2-[2-[bis[2-[(acetyloxy)methoxy]-2-oxoethyl]amino]-5-methylphenoxy]ethoxy]phenyl]-N-[2-[(acetyloxy)methoxy]-2-oxoethyl]glycine (acetyloxy)methyl ester (Fluo-4 AM) for 45 minutes at 37°° C. and allowed to rest for 30 minutes before use. Baseline fluorescence was calculated as the average of a 30 second read, with data points taken at 5 second intervals. Response was defined as the maximum signal within 90 seconds after addition of bevemipretide, subtracted by the baseline fluorescence signal. Concentrations were tested in duplicate and the assay was run 6 times. The curve was calculated as a four-parameter non-linear fit with variable slope. Traces were obtained using the same cell line and same Fluo-4 AM loading protocol but were imaged using a fluorescence microscope using a standard fluorescein isothiocyanate (FITC) filter. Fluorescence for different cells was calculated using region of interest selections.

[5] = Long term toxicology studies in rats, subcutaneous administration; format: in vivo
[6] = Long term toxicology studies of non-human primates; format: in vivo

## O=c1c(O)c(-c2ccc(O)c(O)c2)oc2cc(O)cc(O)c12 [quercetin, 3,3′,4′,5,7-pentahydroxyflavone]
[1]
  inhibition of the activation of the MRGPRX2 receptor caused by bevemipretide: in a dose-dependent manner, inhibit the activation

## Cc1cc(O)cc(C)c1C[C@H](NC(=O)[C@H](N)CCCNC(=N)N)C(=O)N[C@@H](CCCCN)c1nc(Cc2ccccc2)no1 [bevemipretide]
[2]
  effect on cells lacking the MRGPRX2 receptor (calcium response): no effect
[3]
  injection site reactions: injection site reactions were observed as an adverse event
[4]
  EC50: 43.8 to 54.1 µM
[1]
  activation of the MRGPRX2 expressing cells (calcium response): dose dependent activation
[5]
  injection site reactions: injection site reactions were observed from subcutaneous administration; some being severe at the higher dose levels administered
[6]
  injection site reactions: generally not severe even at the highest dosages tested

## CCNC(=O)[C@@H]1CCCN1C(=O)[C@H](CCCNC(=N)N)NC(=O)[C@H](CC(C)C)NC(=O)[C@@H](CC(C)C)NC(=O)[C@H](Cc1ccc(O)cc1)NC(=O)[C@H](CO)NC(=O)[C@H](Cc1c[nH]c2ccccc12)NC(=O)[C@H](Cc1c[nH]cn1)NC(=O)[C@@H]1CCC(=O)N1 [leuprolide]
[1]
  activation of the MRGPRX2 expressing cells (calcium response): dose dependent activation

## C[C@@H]1C[C@H]2[C@@H]3CCC4=CC(=O)C=C[C@]4(C)[C@@]3(Cl)[C@@H](O)C[C@]2(C)[C@@]1(O)C(=O)CCl [monetasone, mometasone]
[1]
  inhibition of the activation of the MRGPRX2 receptor caused by bevemipretide: in a dose-dependent manner, inhibit the activation

## C[C@H](CCC(=O)O)C[C@H](C)C[C@H](C)C(=O)/C=C(\O)[C@H](C)C[C@H](C)C/C=C/[C@@H](C)[C@@H](O)[C@@H](C)[C@@H](O)C[C@@H]1CC[C@@](C)([C@H]2CC[C@@](C)([C@@H](C)O)O2)O1 [Ionomycin, reference compound]
[2]
  effect on cells lacking the MRGPRX2 receptor (calcium response): generates a calcium response
[1]
  activation of the MRGPRX2 expressing cells (calcium response): generates a calcium response
